The source of these data is the supplement of paper PMC10307832.

What all share (experiment): relative viability (nuclei count vs DMSO), 5 days (fraction); higher = more cells survive
Compound in the assay “AT9283 + Trametinib”: O=C(Nc1c[nH]nc1-c1nc2ccc(CN3CCOCC3)cc2[nH]1)NC1CC1 [AT9283] + CC(=O)Nc1cccc(-n2c(=O)n(C3CC3)c(=O)c3c(Nc4ccc(I)cc4F)n(C)c(=O)c(C)c32)c1 [Trametinib] (partner 0.02 µM)
Summed up: (§1)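 A single step with final 0.05% Triton X-100, 1% formaldehyde and 1 ug/ml Hoechst fixed the cells and stained nuclei 5 days after treatment. Lung cancer cell lines in 1536-well plates had been treated by pin tool the day after seeding with one drug alone or a fixed anchor-drug dose plus five library-drug doses (not always all listed) in √10 steps, and nuclei were counted on 4× images. Relative viability is the ratio of nuclei in treated wells to nuclei in vehicle wells, taken as the median of duplicate plates.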

Compound in the assay “AT9283 + Bortezomib”: O=C(Nc1c[nH]nc1-c1nc2ccc(CN3CCOCC3)cc2[nH]1)NC1CC1 [AT9283] + CC(C)C[C@H](NC(=O)[C@H](Cc1ccccc1)NC(=O)c1cnccn1)B(O)O [Bortezomib] (partner 0.002 µM)
Put shortly: as §1

Compound in the assay “AT9283 + Dasatinib”: O=C(Nc1c[nH]nc1-c1nc2ccc(CN3CCOCC3)cc2[nH]1)NC1CC1 [AT9283] + Cc1nc(Nc2ncc(C(=O)Nc3c(C)cccc3Cl)s2)cc(N2CCN(CCO)CC2)n1 [Dasatinib] (partner 0.075 µM)
Put shortly:
as §1

Compound in the assay “Erlotinib + Foretinib”: C#Cc1cccc(Nc2ncnc3cc(OCCOC)c(OCCOC)cc23)c1 [Erlotinib] + COc1cc2c(Oc3ccc(NC(=O)C4(C(=O)Nc5ccc(F)cc5)CC4)cc3F)ccnc2cc1OCCCN1CCOCC1 [Foretinib] (partner 0.25 µM)
Summed up:
as §1

Compound in the assay “AT9283 + Decitabine”: O=C(Nc1c[nH]nc1-c1nc2ccc(CN3CCOCC3)cc2[nH]1)NC1CC1 [AT9283] + Nc1ncn([C@H]2C[C@H](O)[C@@H](CO)O2)c(=O)n1 [Decitabine] (partner 2 µM)
Put shortly: as §1

NCI-H441: the relative viability amounted to 0.259 with AT9283 + Trametinib (first compound 0.003 µM); 0.439 with AT9283 + Trametinib (first compound 0.03 µM); 0.423 in the assay with AT9283 + Trametinib (first compound 0.09487 µM); 0.22 with AT9283 + Trametinib (first compound 0.3 µM); 0.406 with AT9283 + Bortezomib (first compound 0.003 µM); 0.442 with AT9283 + Bortezomib (first compound 0.03 µM). The relative viability with AT9283 + Bortezomib (first compound 0.09487 µM) turned out to be 0.536; with AT9283 + Bortezomib (first compound 0.3 µM), 0.381; with AT9283 + Dasatinib (first compound 0.003 µM), 0.567; in the assay with AT9283 + Dasatinib (first compound 0.03 µM), 0.49; in the assay with AT9283 + Dasatinib (first compound 0.09487 µM), 0.318; with AT9283 + Dasatinib (first compound 0.3 µM), 0.209. Also, the relative viability was determined as 1.01 with Erlotinib + Foretinib (first compound 0.02 µM); 1.02 with Erlotinib + Foretinib (first compound 0.2 µM); 0.933 in the assay with Erlotinib + Foretinib (first compound 0.6325 µM); 0.883 in the assay with Erlotinib + Foretinib (first compound 2 µM); 0.245 with AT9283 + Decitabine (first compound 0.003 µM); 0.281 with AT9283 + Decitabine (first compound 0.03 µM). In addition, the relative viability with AT9283 + Decitabine (first compound 0.09487 µM) was found to be 0.202; with AT9283 + Decitabine (first compound 0.3 µM), 0.217.
